Assays:
[1] = molecular target: T1, BACE1 (Homo sapiens, UniProt P56817); test: In Vitro Enzymatic BACE FRET (Fluorescence Resonance Energy Transfer) Assay; assay type: biochemical; details: read-out: BACE1 FRET assay
Method in brief: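 Buffer: 0.05 M acetate, pH 4.2, 10% DMSO final, 100 uM genapol. Start: FRET substrate 50 nM. Incubation 1 h. Stop: Tris to neutral pH. Read: fluorescence.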

[2] = molecular target: T1, BACE1; test: In Vitro BACE Cell-based Assay (HEK cell assay): Aβ40 in conditioned medium of cells stably expressing Amyloid Precursor Protein, sandwich ELISA; details: read-out: HEK cell assay
Method in brief: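 Conditioned medium Aβ40 by ELISA: pAb40 capture 3 h 4° C., biotin-6E10 detection 2 h 4° C., Streptavidin-Europium TRF. IC50 fitted from % control.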

[3] = Table II, Aβ40, 24 h incubation

T1 sequence (P56817 46-501, species assumed): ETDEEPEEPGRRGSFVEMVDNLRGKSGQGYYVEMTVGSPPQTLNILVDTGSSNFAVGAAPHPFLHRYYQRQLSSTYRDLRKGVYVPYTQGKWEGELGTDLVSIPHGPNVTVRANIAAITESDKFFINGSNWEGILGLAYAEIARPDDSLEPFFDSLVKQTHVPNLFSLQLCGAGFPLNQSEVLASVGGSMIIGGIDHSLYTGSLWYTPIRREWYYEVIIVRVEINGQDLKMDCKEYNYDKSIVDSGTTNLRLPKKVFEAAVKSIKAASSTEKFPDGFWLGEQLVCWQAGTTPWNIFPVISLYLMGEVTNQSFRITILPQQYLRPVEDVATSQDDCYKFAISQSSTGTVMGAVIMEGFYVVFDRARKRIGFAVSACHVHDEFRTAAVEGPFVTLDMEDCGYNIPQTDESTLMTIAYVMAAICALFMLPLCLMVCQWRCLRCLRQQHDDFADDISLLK

| Structure (SMILES) | IC50 ([1]; Table IV, class symbols) | IC50 ([2]; Table IV, class symbols) | IC50 [1] | further results |
| --- | --- | --- | --- | --- |
| CC(C)(C)COc1ccc2c(c1)[C@]1(COC(N)=N1)c1cc(-c3csc(N4CCCC4)n3)ccc1O2 [compound 215] | – | – | – | IC50 ([1]; Table III, IC50's in uM ranges): 1 to 5 µM; IC50 ([2]; Table III, IC50's in uM ranges): > 5 µM |
| COc1ccc2c(c1)[C@]1(COC(N)=N1)c1cc(C#CC(C)(C)C)cnc1O2 [compound 904] | > 5 µM | 0.1 to 1 µM | – | – |
| NC1=N[C@]2(CO1)c1cc(C#CC3CCCCC3)ccc1Oc1ccc(-c3cncnc3)cc12 [compound 138] | – | – | – | IC50 ([1]; Table III, IC50's in uM ranges): < 0.1 µM; IC50 ([2]; Table III, IC50's in uM ranges): 0.1 to 1 µM |
| CCCOc1ccc2c(c1)[C@]1(COC(N)=N1)c1cc(-c3cncnc3)ccc1O2 [Example 5, (4S)-2′-propoxy-7′-(5-pyrimidinyl)spiro[1,3-oxazole-4,9′-xanthen]-2-amine] | – | – | – | IC50 ([1]; Table 1): < 0.1 µM; IC50 ([2]; Table 1, Aβ40, 24 h incubation): < 0.1 µM |
| COC(C)(C)COc1ccc2c(c1)[C@@]1(COC(N)=N1)c1cc(-c3cccnc3)cnc1O2 [compound 983] | – | – | < 0.1 µM | IC50 [2]: < 0.1 µM |
| COc1ccc2c(c1)[C@]1(COC(N)=N1)c1cc(-c3cncnc3)cc(F)c1O2 [152a] | – | – | – | IC50 ([1]; Table III, IC50's in uM ranges): 0.1 to 1 µM; IC50 ([2]; Table III, IC50's in uM ranges): 1 to 5 µM |
| NC1=N[C@@]2(CO1)c1cc(-c3cccnc3)ccc1Oc1cnc(C3=CCCCC3)cc12 [compound 848] | < 0.1 µM | < 0.1 µM | – | – |
| CC(C)(O)C#Cc1ccc2c(c1)[C@@]1(COC(N)=N1)c1cc(C#CC(C)(C)O)cnc1O2 [compound 935] | – | – | 0.1 to 1 µM | IC50 [2]: 0.1 to 1 µM |
| NC1=N[C@]2(CO1)c1cc(-c3cncnc3)ccc1Oc1c(F)cccc12 [compound 552] | > 5 µM | > 5 µM | – | – |
| CC1(C)CN(c2cc(F)c3c(c2)[C@@]2(COC(N)=N2)c2cc(-c4cncnc4)ccc2O3)CCO1 [compound 506] | – | – | 0.1 to 1 µM | IC50 ([2]; HEK cells): 1 to 5 µM |
| NC1=N[C@@]2(CO1)c1cc(Br)ccc1Oc1c(F)cccc12 [compound 558] | 1 to 5 µM | > 5 µM | – | – |
| CC(C)(C)CCOc1ccc2c(c1)[C@]1(COC(N)=N1)c1cc(-c3cncnc3)ccc1O2 [Example 70, (4S)-2′-(3,3-dimethylbutoxy)-7′-(5-pyrimidinyl)spiro[1,3-oxazole-4,9′-xanthen]-2-amine] | – | – | – | IC50 ([1]; Table II): < 0.1 µM; IC50 [2, 3]: 0.1 to 1 µM |
| Cc1ccc(-c2cnc3c(c2)[C@]2(COC(N)=N2)c2cc(-c4cncnc4)ccc2O3)cc1 [compound 578] | < 0.1 µM | < 0.1 µM | – | – |
| COc1ccc2c(c1)[C@@]1(COC(N)=N1)c1cc(NC(=O)c3ccc(Cl)cn3)ccc1O2 [Example 55, N-((4R)-2-amino-7′-methoxyspiro[1,3-oxazole-4,9′-xanthen]-2′-yl)-5-chloro-2-pyridinecarboxamide] | – | – | – | IC50 ([1]; Table II): < 0.1 µM; IC50 [2, 3]: 0.1 to 1 µM |
| CC(C)(F)COc1ccc2c(c1)[C@]1(COC=N1)c1cc(Br)c(N)nc1O2 [compound 171] | – | – | – | IC50 ([1]; Table III, IC50's in uM ranges): 0.1 to 1 µM; IC50 ([2]; Table III, IC50's in uM ranges): 1 to 5 µM |
| CC(C)OCCOc1ccc2c(c1)[C@]1(COC(N)=N1)c1cc(-c3cccnc3)ccc1O2 [compound 181] | – | – | – | IC50 ([1]; Table III, IC50's in uM ranges): < 0.1 µM; IC50 ([2]; Table III, IC50's in uM ranges): 0.1 to 1 µM |
| COC(C)(C)C#Cc1cnc2c(c1)[C@@]1(COC(N)=N1)c1cc(-c3cncc(F)c3)ccc1O2 [compound 699] | – | – | 0.1 to 1 µM | IC50 [2]: 1 to 5 µM |
| CC(C)(C)COc1ccc2c(n1)[C@]1(COC(N)=N1)c1cc(-c3cncnc3)ccc1O2 [compound 733] | – | – | < 0.1 µM | IC50 [2]: < 0.1 µM |
| CCCOc1cc2c(cc1F)Oc1ccc(-c3cncnc3)cc1[C@@]21COC(N)=N1 [compound 940] | – | – | < 0.1 µM | IC50 [2]: < 0.1 µM |
| CC(C)(C)COc1ccc2c(n1)[C@]1(COC(N)=N1)c1cc(Br)ccc1O2 [compound 735] | – | – | 1 to 5 µM | IC50 [2]: 1 to 5 µM |
| Cn1cc(-c2cccc(-c3ccc4c(c3)[C@@]3(COC(N)=N3)c3cc(-c5cnn(C)c5)ncc3O4)c2)cn1 [compound 328] | – | – | – | IC50 ([1]; in vitro BACE FRET enzyme assay, IC50 class symbols): < 0.1 µM; IC50 ([2]; HEK cell-based assay, Aβ40 in conditioned medium, IC50 class symbols): 0.1 to 1 µM |

The next lines start with results.

| IC50 ([1]; Table IV, class symbols) | IC50 ([2]; Table IV, class symbols) | IC50 [1] | Structure (SMILES) | further results |
| --- | --- | --- | --- | --- |
| 1 to 5 µM | > 5 µM | – | CC(=O)c1sccc1-c1ccc2c(c1)[C@@]1(COC(N)=N1)c1cc(OCC(C)(C)C)ccc1O2 [compound 835] | – |
| > 5 µM | > 5 µM | – | NC1=N[C@]2(CO1)c1cc(Br)ccc1Oc1cnc(Cl)cc12 [compound 549] | – |
| 1 to 5 µM | 1 to 5 µM | – | COc1ccc2c(c1)[C@]1(COC(N)=N1)c1cc(-c3cccc4ncccc34)ccc1O2 [compound 591] | – |
| > 5 µM | 1 to 5 µM | – | COc1ccc2c(c1)[C@]1(COC(N)=N1)c1cc(OC)cnc1O2 [compound 541] | – |
| – | – | < 0.1 µM | CC1(COc2ccc3c(c2)[C@@]2(COC(N)=N2)c2cc(-c4ccc(F)cc4)cnc2O3)COC1 [compound 775] | IC50 [2]: < 0.1 µM |
| – | – | 0.1 to 1 µM | CC(C)(C)COc1ccc2c(c1)[C@]1(COC(N)=N1)c1cc(C3CC3)ccc1O2 [compound 759] | IC50 [2]: 1 to 5 µM |

Source: patent publication US8426447B2, “Spiro-tricyclic ring compounds as beta-secretase modulators and methods of use” (Amgen Inc., priority 2008, dated 2013)
